Laboratory results from PMC10035370, “Targeting Tumor Angiogenesis with the Selective VEGFR-3 Inhibitor EVT801 in Combination with Cancer Immunotherapy” (Cancer Research Communications, 2022).

What was measured:
BNL-R3 tumors = assay: VEGFR3 expressing BNL tumor model (BNL-R3); assay type: in vivo, mice
Method: A total number of 60 female BALB/c mice were injected subcutaneously on the flank with 2 x 10^6 cells in 250 μL PBS buffer/growth factor reduced Matrigel®. Mice were then kept in a post-operative cabinet at 28 °C until complete recovery. Assuming an ovoid form, tumor volume in mm3 was calculated using digital callipers according to the following formula: V = 0.52 x (width)² x length. On day 7, mice were randomized into 4 groups of 11 mice and 1 group with 16 mice, according to mean tumor volume via cage equalizer software. Subsequently, tumor volume was measured on days 11, 13, 15, 18, 19 and 21 following tumor cell injection. The selected groups received vehicle or EVT801 orally in a volume of 10 mL/kg. Mice body weight was measured daily before dosing. On the day of termination, mice were anaesthetized to facilitate 500 μL blood withdrawal by puncture of the jugular vein. Three mice per group and per time point (i.e., 0.5, 2, 4 and 24 h after the last dosing) were allocated for pharmacokinetic study. Spleens of 3 mice per group were collected, and immune cell populations were separated from dissociated splenocytes via MACS, and subjected to flow cytometry analysis.

VEGFR-3 = VEGFR-3 (Homo sapiens, UniProt P35916); assay: Cellular autophosphorylation assay, HEK293 cells transiently expressing VEGFR-3; assay type: cell-based; parameters: expressed in transfected cells; host or cells: HEK293T; details: read-out: IC50 in cellular assays, VEGFR-3 autophosphorylation
Sequence of VEGFR-3 (P35916 25-1363): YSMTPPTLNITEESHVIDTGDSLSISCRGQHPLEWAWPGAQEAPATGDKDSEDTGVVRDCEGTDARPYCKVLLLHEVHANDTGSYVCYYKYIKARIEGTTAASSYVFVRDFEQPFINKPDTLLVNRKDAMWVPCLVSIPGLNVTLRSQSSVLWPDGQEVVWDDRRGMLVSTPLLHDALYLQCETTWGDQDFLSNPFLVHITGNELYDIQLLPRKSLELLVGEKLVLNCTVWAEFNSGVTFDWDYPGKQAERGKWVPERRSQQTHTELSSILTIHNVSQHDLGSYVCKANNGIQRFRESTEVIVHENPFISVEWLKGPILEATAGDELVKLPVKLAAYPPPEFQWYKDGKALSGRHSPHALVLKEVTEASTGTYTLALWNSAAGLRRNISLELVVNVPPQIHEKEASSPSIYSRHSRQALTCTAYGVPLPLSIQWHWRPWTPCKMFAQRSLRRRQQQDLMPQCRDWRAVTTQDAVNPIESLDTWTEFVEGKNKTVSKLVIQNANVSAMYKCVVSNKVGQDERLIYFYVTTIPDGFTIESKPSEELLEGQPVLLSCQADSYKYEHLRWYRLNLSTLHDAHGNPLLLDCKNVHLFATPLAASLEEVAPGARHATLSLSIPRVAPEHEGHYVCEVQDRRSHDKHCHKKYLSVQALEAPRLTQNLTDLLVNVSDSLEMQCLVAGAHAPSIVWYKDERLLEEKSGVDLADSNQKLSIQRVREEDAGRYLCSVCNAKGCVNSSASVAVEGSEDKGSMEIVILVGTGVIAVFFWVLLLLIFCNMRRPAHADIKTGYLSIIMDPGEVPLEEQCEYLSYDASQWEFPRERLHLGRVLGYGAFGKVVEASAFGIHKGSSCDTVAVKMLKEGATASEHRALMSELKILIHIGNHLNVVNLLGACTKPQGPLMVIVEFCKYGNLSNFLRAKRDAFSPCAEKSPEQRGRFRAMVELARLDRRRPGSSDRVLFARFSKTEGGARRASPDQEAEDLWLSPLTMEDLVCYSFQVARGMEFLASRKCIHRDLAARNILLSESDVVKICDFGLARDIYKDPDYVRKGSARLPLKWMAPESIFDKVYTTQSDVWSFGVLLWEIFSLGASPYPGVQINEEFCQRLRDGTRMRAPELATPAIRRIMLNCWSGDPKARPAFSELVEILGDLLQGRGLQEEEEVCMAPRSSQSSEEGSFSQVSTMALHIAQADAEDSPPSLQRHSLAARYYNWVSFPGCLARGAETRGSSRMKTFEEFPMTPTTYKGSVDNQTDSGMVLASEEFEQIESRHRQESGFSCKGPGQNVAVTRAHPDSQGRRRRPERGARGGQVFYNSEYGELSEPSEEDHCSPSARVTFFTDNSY
Method: Transfection of HEK293T cells and Ba/F3 cells with VEGFR-1-Flag, VEGFR-2-Flag or VEGFR-3-Flag expression constructs was performed using Fugene-6 (Roche) as per manufacturer’s protocol. Briefly, Fugene-6 was pre-incubated with Opti-Mem (Gibco) before adding DNA. After 24 h, media was replaced with serum-free culture media containing 0.2 % BSA. On the next day, cells were incubated for 1 h in 1 mM orthovanadate, harvested, dissociated and distributed at 4 x 10^5 cells in 5 mL for HEK-VEGFR-1 and HEK-VEGFR-3, and 5 x 10^4 cells per 5 mL for HEK VEGFR-2 in the presence of EVT801 or SAR401849. After 30 min, the reaction was stopped by the addition of cold PBS supplemented with 1 mM orthovanadate. Cells were then lysed with 150 μl of RIPA buffer for 15 min at 4°C, then centrifuged for 10 min at 10,000 g. Supernatants (75 μl) were distributed in duplicate on 96 well plates that were precoated with the anti-flag, and left for 1 h at room temperature. After 3 washes, the anti-phosphotyrosine conjugated to the HRP was added and incubated for 1 h at room temperature. Wells were then washed 3 times with TBS buffer containing 0.5 % Tween-20 and 2 mM MgCl2. The reaction was stopped with 50 μL of 2 N H2SO4, and the signal was read with Envision at the wavelengths of 485 nm and 530 nm.

## CCn1c(N)c(-c2ncc[nH]2)c(=O)c2ccc(C#C[C@@](C)(O)COC)nc21 [EVT801]
BNL-R3 tumors; 10 mg/kg twice per day
  T/C ratio, tumor growth: 31%
  decrease of number of vessels: 60%
  decrease of total vessel surface: 35%
BNL-R3 tumors; 30 mg/kg twice per day
  T/C ratio, tumor growth: 10%
  decrease of number of vessels: 83%
  decrease of total vessel surface: 29%
BNL-R3 tumors; both doses, 10 and 30 mg/kg twice per day
  tumor hypoxia: decreased hypoxia
BNL-R3 tumors; endpoint
  infiltration of CD3+ cells in the tumor: increased
VEGFR-3
  IC50: 39 nM
